For 59 molecules, RP-LC retention time results are on record in the METLIN SMRT retention time set (Domingo-Almenara et al. 2019).

SMILES strings stand for the structures.

The nature of this series: gradient 5% acetonitrile 3 min, to 50% in 2 min, to 85% in 15 min, held 3 min, 100 µL/min. Particulars: column: Zorbax Extend-C18 2.1 x 50 mm; eluents: water / acetonitrile, 0.1% formic acid. In outline: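 The mobile phases were water and acetonitrile, each with 0.1% formic acid, pumped at 100 μL/min through a Zorbax Extend-C18 column (2.1 × 50 mm, 1.8 μm). Pure standards were injected as mixtures of ~100 molecules and detected by a quadrupole time-of-flight mass spectrometer in positive and negative ionization mode. Retention time came from computationally picked adduct peaks, each inspected by hand.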
With `O=C(NC1CCN(Cc2ccccc2)CC1)C1CCCN(c2nnc(-n3cccc3)s2)C1` (centres undefined), the RP-LC retention time is 659 s.
Then `Cc1sc(-c2cc(C(F)(F)F)on2)cc1S(=O)(=O)NCCc1cccs1`, with 1140 s; and `COc1cccc(NC(=O)Nc2ccc(-c3cn4ccc(C)nc4n3)cc2)c1`, with 639 s; and `CCCN1C(=O)c2cc(S(=O)(=O)NCC(C)C)ccc2Oc2cccnc21`, with 1050 s.
Molecule `CN(C)c1cccc(C(=O)NCC(=O)Nc2nc3ccccc3[nH]2)c1` gave an RP-LC retention time of 594 s.
For the molecule `Cc1nnc2sc(SCc3ccc(C(F)(F)F)cc3)nn2c1=O`, the RP-LC retention time worked out at 801 s.
Then `CC(=O)Nc1ccc(C(=O)NCCNC(=O)Nc2cccs2)cc1`, with 600 s; and `COc1ccc(CCNC(=O)N2CC3CC2C(=O)O3)cc1` (centres undefined), with 625 s.
The molecule `Cc1cccc(NC(=O)Cn2cc(S(=O)(=O)c3ccc(F)cc3)c3ccccc32)n1` gave an RP-LC retention time of 832 s.
Turning to `Cc1ccc(CNC(=O)c2c(-c3cccc(Br)c3)noc2C)o1`, the RP-LC retention time was found to be 987 s.
For `O=C(Cc1cccs1)N1CCCn2cc(-c3ccccc3F)nc21`, the RP-LC retention time worked out at 848 s.
Then `Cc1cccc(Cn2nc(-c3nc(-c4ccc(F)cc4)no3)ccc2=O)c1`, with 1160 s; and `CCCNC(=O)Cc1c(C)nc2nc(-c3ccccc3)nn2c1C`, with 704 s.
Then `Cc1ccc(-c2nc(-c3cccc(-c4ccnn4C)c3)no2)c(C)c1`, with 1330 s; and `CCOc1ccc(NC(=O)c2cnc3c(c2)c(=O)n(C)c(=O)n3-c2ccccc2)cc1`, with 904 s; and `O=S(=O)(c1ccc(F)c(F)c1)N1CCc2nc(-c3ccc(F)cc3)ncc2C1`, with 1110 s.
Then `O=S(=O)(Nc1cccn2c(C3CCC3)nnc12)c1ccc2c(c1)CCCC2`, with 933 s; and `CCN1CCN(Cc2nc3cc(NC(=O)CC(C)C)ccc3n2C(C)C)CC1`, with 571 s.
In turn, `Cc1nc2cccnc2n1CC1CCCN(S(=O)(=O)c2ccc3c(c2)OCCO3)C1` (centres undefined) displayed an RP-LC retention time of 672 s.
`CCCn1cc(CCNC(=O)Nc2ccc(F)c(Cl)c2)c2cccnc21` came in with an RP-LC retention time of 835 s.
Then `Cc1ccc(C(=O)N2CCN(c3nnc4ccccn34)CC2)cc1F`, with 647 s.
Regarding `CC(C)CCSc1nnc2c(S(=O)(=O)N3CCN(c4ccc(F)cc4)CC3)cccn12`, the RP-LC retention time is 1060 s.
Take `CCc1[nH]nc(S(=O)(=O)N2CCN(c3ccccn3)CC2)c1C(=O)OC`: the RP-LC retention time turned out to be 560 s.
Then `CCc1nc2oc3cc(OC)ccc3c(=O)c2c(=O)n1-c1ccc(C)cc1`, with 809 s; and `Cc1nc(-c2noc(-c3ccccc3)n2)cn1CC(=O)NCc1ccccc1F`, with 810 s; and `Cc1cccc(NC(=O)C2CCCN(c3ncnc4onc(-c5ccc(F)cc5)c34)C2)n1` (centres undefined), with 849 s.
`Cc1[nH]c(C(=O)Nc2cccc(F)c2)c(C)c1S(=O)(=O)N1CCCC1` yielded an RP-LC retention time of 880 s.
Then `Cc1cc2nn(CC(=O)Nc3cccc(Cl)c3)c(=O)n2c(N2CCCC2)n1`, with 813 s.
In the case of `O=c1c2nc(-c3ccc(F)cc3)cn2ccn1-c1ccc2c(c1)CCC2`, the RP-LC retention time was determined as 945 s.
`O=C(NC1CC1)c1n[nH]c2c1CCCCCC2` yielded an RP-LC retention time of 719 s.
Then `Cn1c(C2CCN(C(=O)Nc3cccc(Cl)c3)CC2)cc(=O)n2nccc12`, with 693 s.
The molecule `COc1ccc(-c2noc(Cc3nnc(-c4ccc(Cl)cc4)o3)n2)cc1OC` displayed an RP-LC retention time of 966 s.
`CCc1ccc(NS(=O)(=O)c2ccc3c(c2)C(=O)N(C)c2ncccc2O3)cc1` registered an RP-LC retention time of 1010 s.
Then `CCn1nccc1C(=O)N1C[C@@H]2CCCN3CCC[C@@H]([C@H]23)[C@H]1CCCC(=O)N1CCOCC1`, with 572 s; and `COCCN1CC2(CCN(S(=O)(=O)c3c(C)cc(C)cc3C)CC2)C1c1ccccc1` (centres undefined), with 808 s; and `CCCNC(=O)N1CC(Oc2cccc(-c3nc(-c4ccccc4)no3)c2)C1`, with 1040 s.
Then `Cc1ccc(NC(=O)N2CCC(N3CCN(Cc4ccc(F)cc4)C(=O)C3=O)CC2)cc1`, with 754 s; and `Cc1cccc(-c2nc3ccccn3c2NC(=O)NCCc2ccccc2)c1`, with 680 s; and `O=C(CSc1ccc(N2CCCC(C(=O)NC3CC3)C2)nn1)Nc1ccc(F)cc1F` (centres undefined), with 617 s.
In turn, `Cc1oc(-c2ccc(NC(=O)C3CCCC3)cc2)nc1Cn1cccn1` displayed an RP-LC retention time of 859 s.
Then `Cc1c(-c2noc(C(=O)NCCN3CCCCCC3)n2)oc2ccccc12`, with 710 s; and `CCn1c(=O)c2c(cc(C)n2C)n(CC(=O)Nc2ccc(F)cc2F)c1=O`, with 764 s; and `O=C(NCc1ccco1)c1ccc2c(c1)CCCN2C(=O)c1ccc(Cl)cc1`, with 852 s.
Then `Cc1cc(F)ccc1NS(=O)(=O)c1ccc(-c2c(C)noc2C)cc1`, with 964 s; and `O=C1CCCCC(Cc2ccccc2)(C(=O)Nc2ccc(F)cc2)N1` (centres undefined), with 818 s; and `COc1ccc2c(c1)C1(CCN(C(=O)c3cccc(Cl)c3)C1)C(=O)N2C` (centres undefined), with 831 s.
With `CCn1c(=O)c(N2CCN(C(=O)Nc3ccc(Br)c(C)c3)CC2)nc2cccnc21`, the RP-LC retention time was determined as 1060 s.
For `O=C(Cc1cccs1)Nc1cc(F)c2nc(N3CCOCC3)ccc2c1`, the RP-LC retention time was found to be 793 s.
In the case of `CC(=O)N1CCCN(C(=O)c2ccc(C#N)cc2)CC1`, the RP-LC retention time turned out to be 589 s.
Turning to `Cn1nc(-c2nc(-c3ccccc3F)no2)c2c1CCN(C(=O)C1(c3ccccc3)CC1)C2`, the RP-LC retention time came to 1010 s.
Then `COC(=O)c1ccc(Cl)cc1NC(=O)NCCc1cn(C)c2ncccc12`, with 845 s; and `CCCS(=O)(=O)N1CCc2[nH]nc(-c3ccccc3)c2C1`, with 752 s; and `COc1ncc(C(=O)NC(C)CCc2ccccc2)cn1` (centres undefined), with 797 s.
Then `Cc1ccc(C)c(N2CCN(c3ccnc(SCC(=O)NCc4ccc(Cl)cc4)n3)CC2)c1`, with 942 s; and `CN(CCNC(=O)C1CCc2nc(N3CCOCC3)ncc2C1)C1CCCCC1` (centres undefined), with 586 s; and `O=C(NCCC1CCN(C(=O)Nc2ccc(F)cc2F)CC1)c1ccoc1`, with 726 s.
For the molecule `O=C(NCCC1CCN(C(=O)Nc2ccc(F)cc2F)CC1)C1CCCC1`, the RP-LC retention time amounted to 777 s.
Then `Cc1ccc(NC(=O)Cn2nc3c(Oc4ccccc4C)nccn3c2=O)cc1`, with 853 s; and `CCCn1c(=O)oc2cc(NC(=O)NCC(=O)OCC)ccc21`, with 703 s.
